Measurements reported in US20130005759A1, “SMALL MOLECULE MODIFIERS OF MICRORNA MIR-122” (North Carolina State University, priority 2010, published 2013).

Experiments:
[1] = tested on: psiCHECK-control vector (no miRNA target sequence); assay: psiCHECK-control vector luciferase counter-assay in Huh7 cells; type: cell-based, human; conditions: Huh7, 10 μM
Text: (FIG. 3). […] The relative luciferase units were normalized to the corresponding DMSO signals. […] This confirms that compound 2 and the antagomir have similar effects on the reduction of miR-122 function in Huh7 cells.
Compounds which elicited greater than a 5-fold increase of the relative luciferase units signal compared to the DMSO control were then re-assayed in triplicate to confirm the validity of the hit compound. Upon secondary validation of miR-122 inhibition, identical assays were repeated with the psiCHECK-Control vector to ascertain that the effect is specific to the miR-122 pathway, and not simply affecting the Renilla gene. In order to assess the relative degree of miR-122 inhibition, Huh7 cells were also co-transfected with either the psiCHECK-Control plasmid or the psiCHECK-miR122 plasmid (0.5 μg) and a miR-122 2′-OMe PS antagomir (50 pmol; 5′ […] (SEQ ID NO:4) 3′; IDT DNA)(2) using the X-tremGENE transfection reagent (Roche Applied Science, 4:2 reagent/DNA ratio). The transfection media was replaced with standard DMEM growth media after 4 hours and the cells were incubated for 48 hours prior to analysis with a Dual Luciferase Assay Kit (FIG. 3).

[2] = tested on: hepatitis C virus (HCV) genotype 1a H77c RNA; assay: HCV replication in Huh7 cells (HCV RNA by quantitative RT PCR); type: cell-based; conditions: Huh7, 10 μM (antagomir transfected), 48 hours
Description: Aberrantly regulated miR-122 is involved in the development of heptocellular carcinoma (HCC). miR-122 is a cellular component required by hepatitis C virus (HCV) for viral replication. […] Due to the efficient down-regulation of miRNA-122 by the small molecule inhibitors 1 and 2, both compounds were tested for their ability to inhibit HCV replication in Huh7 cells. The pHtat2Neo/QR/KR/FV/SI plasmid (provided by Dr. Stanley Lemon of University of Texas Medical Branch (UTMB)) was used to generate genotype 1a H77c RNA, which was subsequently transfected into Huh7 cells.^16 The cells were then either transfected with a miR-122 antagomir (positive control), or treated with compounds 1 and 2 (10 μM), or DMSO (negative control). After 48 hours, total RNA was isolated and HCV RNA levels were measured by quantitative RT PCR (FIG. 7). In agreement with previous reports, the antagomir reduced HCV RNA levels to 20%.^6 Moreover, the small molecule miR-122 inhibitors 1 and 2 elicited a reduction in viral load to 48% and 47%, respectively.
The pHtat2Neo/QR/KR/FV/SI plasmid (provided by Dr. Stanley Lemon)^16 was linearized using XbaI (10 units, 50 μL reaction; New England Biolabs), followed by transcription with T7 RNA Polymerase (6 h, 37° C.), and purification on Microcon 10 columns. Huh7 cells were then grown to 60% confluency in a 6 well plate and transfected with 1 μg RNA using X-tremGENE transfection reagent (Roche Applied Science, 3:2 reagent/RNA ratio) in Opti-Mem media (Invitrogen). After a 4 hour incubation at 37° C., the transfection media was removed and replaced with standard growth media (2 mL) supplemented with 10 μM of 1 or 2 (1% DMSO final concentration). All experiments were conducted in triplicate for statistical validation. […] Quantitative RT-PCR was then performed as previously described using the general HCV RT-PCR Primers (5′: […] 3′ (SEQ ID NO:7) and 5′ […] 3′) (SEQ ID NO:8) and GADPH primers (5′ […] 3′ (SEQ ID NO:9) and 5′ […] 3′) (SEQ ID NO:10) as a standard control.

Compound | normalized Renilla luciferase signal with psiCHECK-control vector [1] | HCV RNA levels / viral load reduced to [2] [%]
O=C(Nc1ccc2ccccc2c1)c1ccc(Cl)cc1Cl [Compound 1] | no statistically significant alteration | 48
O=S(=O)(c1ccc2c(c1)CCCN2)N1CCC[C@H]2CCCC[C@@H]21 [Compound 2] | no statistically significant alteration | 47
